Measurements reported in US20240058302A1, “METHOD OF INDUCTION OF TUMOR ASSOCIATED ANTIGENS WITH BRYOSTATIN” (BryoLogyx Inc., priority 2019, published 2024).

What was measured:
CD269 (BCMA) = assay: Flow cytometry of surface protein expression, NCI-H929 cell line stimulated with bryostatin-1; type: cell-based, human; details: NCI-H929 (MM) cells; bryostatin-1 0.001-1 nM, 24 or 72 hours; FIG. 1C
From the text: (§1) Bryostatin-1 has been examined in numerous tumor cell lines representing various hematological tumor types. Surface protein target expression was examined by flow cytometry with human cell lines stimulated with different concentrations of bryostatin-1. Human cell lines representative of different hematological disease indications of leukemia/lymphoma (Toledo, REH, DB), multiple myeloma (NCI-H929, U266B1, RPMI8226), and acute myeloid leukemia (Kasumi-1, AML-193, THP1) were used as target cell lines. Each cell line was treated with bryostatin-1 at 0.001, 0.01, 0.1, or 1 nM for either 24 hours or 72 hours in duplicate prior to measuring the surface molecule expression, quantitatively, of the following protein antigens by flow cytometry: CD19, CD20, CD22, CD33, CD37, CD38, CD123, CD269 (BCMA), and isotype control. Bryostatin-1 caused an upregulation of some antigens and not others.

CD22 [1] = assay: Flow cytometry of surface protein expression, REH cell line stimulated with bryostatin-1; type: cell-based, human; details: REH (ALL) cells; bryostatin-1 0.001-1 nM, 24 or 72 hours; FIG. 1A
From the text: as §1

[2] = system: tumor cells derived from relapsed, low-expressing TAA patients; assay: PDX model with CD22-directed CAR-T and bryostatin-1; type: in vivo; details: bryostatin-1 administered on Day 45 after CD22-directed CAR-T cells on Day 42
CD123 = assay: Flow cytometry of surface protein expression, AML193 cell line stimulated with bryostatin-1; type: cell-based, human; details: AML193 (AML) cells; bryostatin-1 0.001-1 nM, 24 or 72 hours; FIG. 1B
From the text: as §1

CD5 = assay: Surface antigen expression on primary B cells from healthy donors, MM or CLL patients; type: cell-based, human; details: 24 h exposure
From the text: (§2) The ability of bryostatin-1 at multiple concentrations to modulate the surface expression of multiple antigens (CD5, CD19, CD20, CD22, CD37, CD200/OX2 and CD269/BCMA) at two time points on primary B cells from healthy donors (2 donors) or patients with multiple myeloma (2 patients, MM) or chronic lymphocytic leukemia (4 patients, CLL) was investigated.

CD22 [3] = assay: as above; type: cell-based, human
From the text: as §2

CD19 = assay: as above; type: cell-based, human; details: 72 h exposure
From the text: as §2

[4] = primary B cells of CLL patients
[5] = primary B cells of healthy donors

SMILES: CCC/C=C/C=C/C(=O)O[C@H]1/C(=C/C(=O)OC)C[C@H]2C[C@H]([C@@H](C)O)OC(=O)C[C@H](O)C[C@@H]3C[C@H](OC(C)=O)C(C)(C)[C@](O)(C[C@@H]4C/C(=C/C(=O)OC)C[C@H](/C=C/C(C)(C)[C@]1(O)O2)O4)O3 [bryostatin-1, Bryostatin-1]
- CD269 (BCMA) cell surface expression (CD269 (BCMA)): upregulated
- CD22 cell surface expression (CD22 [1]): upregulated
- Tumor response [2]: induced the tumors to respond
- CD123 cell surface expression (CD123): upregulated
- CD5 expression (CD5; [4]): not
- CD5 expression (CD5; primary B cells of MM patients): increases
- CD5 expression (CD5; [5]): not
- CD22 expression (CD22 [3]; [4]): upregulated
- CD22 expression (CD22 [3]; primary B cells of MM patients): not
- CD22 expression (CD22 [3]; [5]): upregulated
- CD19 expression (CD19; [4]): increases
- CD19 expression (CD19; primary B cells of MM patients): not
- CD19 expression (CD19; [5]): increases
